From PubChem BioAssay (NCI)
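Step 1: Grow cells in 96-well plates. Step 2: Expose to compound for 48 hours at 5 concentrations. Step 3: Interpolate endpoints linearly; if unreached, use highest concentration. GI50 marks 50% less growth. TGI is the concentration that stops growth completely.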

Tests used:
Experiment in all cases: NCI tumour cell line growth inhibition, 48 h
MDA-MB-231 breast = system: MDA-MB-231 breast
NCI-H522 lung = system: NCI-H522 lung
NCI-H460 lung = system: NCI-H460 lung
UACC-62 melanoma = system: UACC-62 melanoma
UACC-257 melanoma = system: UACC-257 melanoma
MALME-3M melanoma = system: MALME-3M melanoma
SK-MEL-5 melanoma = system: SK-MEL-5 melanoma
OVCAR-4 ovarian = system: OVCAR-4 ovarian
SNB-19 CNS = system: SNB-19 CNS
HS 578T breast = system: HS 578T breast
SK-MEL-2 melanoma = system: SK-MEL-2 melanoma
HCT-116 colon = system: HCT-116 colon
PC-3 prostate = system: PC-3 prostate
MOLT-4 leukemia = system: MOLT-4 leukemia
K-562 leukemia = system: K-562 leukemia
MDA-MB-468 breast = system: MDA-MB-468 breast
ACHN renal = system: ACHN renal
HCC-2998 colon = system: HCC-2998 colon
CAKI-1 renal = system: CAKI-1 renal
CCRF-CEM leukemia = system: CCRF-CEM leukemia
SN12C renal = system: SN12C renal
DU-145 prostate = system: DU-145 prostate
RXF 393 renal = system: RXF 393 renal
KM12 colon = system: KM12 colon
HOP-92 NSCLC = system: HOP-92 NSCLC
BT-549 breast = system: BT-549 breast
U251 CNS = system: U251 CNS
OVCAR-8 ovarian = system: OVCAR-8 ovarian
RPMI-8226 leukemia = system: RPMI-8226 leukemia
LOX IMVI melanoma = system: LOX IMVI melanoma
SK-OV-3 ovarian = system: SK-OV-3 ovarian
NCI/ADR-RES ovarian = system: NCI/ADR-RES ovarian
COLO 205 colon = system: COLO 205 colon
EKVX NSCLC = system: EKVX NSCLC
NCI-H23 lung = system: NCI-H23 lung
SF-268 CNS = system: SF-268 CNS
SF-539 CNS = system: SF-539 CNS
SR leukemia = system: SR leukemia
OVCAR-3 ovarian = system: OVCAR-3 ovarian
SF-295 CNS = system: SF-295 CNS
IGROV1 ovarian = system: IGROV1 ovarian
M14 melanoma = system: M14 melanoma
T-47D breast = system: T-47D breast
SW-620 colon = system: SW-620 colon
HOP-62 NSCLC = system: HOP-62 NSCLC
MCF7 breast = system: MCF7 breast
HCT-15 colon = system: HCT-15 colon
OVCAR-5 ovarian = system: OVCAR-5 ovarian
SNB-75 CNS = system: SNB-75 CNS
MDA-MB-435 = system: MDA-MB-435
HL-60(TB) leukemia = system: HL-60(TB) leukemia
HT29 colon = system: HT29 colon
A498 renal = system: A498 renal
UO-31 renal = system: UO-31 renal
SK-MEL-28 melanoma = system: SK-MEL-28 melanoma
A549 NSCLC = system: A549 NSCLC
TK-10 renal = system: TK-10 renal
NCI-H226 lung = system: NCI-H226 lung
786-0 renal = system: 786-0 renal

COc1ccc(-c2nnc3c(/C=C/c4ccc(Br)cc4)nc4ccccc4n23)cc1
GI50 (MDA-MB-231 breast): 4.82 µM
TGI (MDA-MB-231 breast): 17.5 µM
GI50 (NCI-H522 lung): 0.156 µM
TGI (NCI-H522 lung): 0.301 µM
GI50 (NCI-H460 lung): 11.2 µM
TGI (NCI-H460 lung): 23.2 µM
GI50 (UACC-62 melanoma): 5.61 µM
TGI (UACC-62 melanoma): 19.5 µM
GI50 (UACC-257 melanoma): 13.1 µM
TGI (UACC-257 melanoma): 25.8 µM
GI50 (MALME-3M melanoma): 1.3 µM
TGI (MALME-3M melanoma): 2.72 µM
GI50 (SK-MEL-5 melanoma): 10.8 µM
TGI (SK-MEL-5 melanoma): 22.7 µM
GI50 (OVCAR-4 ovarian): 3.96 µM
TGI (OVCAR-4 ovarian): 16.4 µM
GI50 (SNB-19 CNS): 13.7 µM
TGI (SNB-19 CNS): 26.8 µM
GI50 (HS 578T breast): 16.7 µM
TGI (HS 578T breast): 57 µM
GI50 (SK-MEL-2 melanoma): 10.9 µM
TGI (SK-MEL-2 melanoma): 22.8 µM
GI50 (HCT-116 colon): 1.47 µM
TGI (HCT-116 colon): 3.2 µM
GI50 (PC-3 prostate): 11.4 µM
TGI (PC-3 prostate): 23.5 µM
GI50 (MOLT-4 leukemia): 2.7 µM
TGI (MOLT-4 leukemia): 12.1 µM
GI50 (K-562 leukemia): 0.431 µM
TGI (K-562 leukemia): 13.1 µM
GI50 (MDA-MB-468 breast): 2.08 µM
TGI (MDA-MB-468 breast): 8.39 µM
GI50 (ACHN renal): 2.55 µM
TGI (ACHN renal): 9.06 µM
GI50 (HCC-2998 colon): 12.1 µM
TGI (HCC-2998 colon): 24.5 µM
GI50 (CAKI-1 renal): 11.3 µM
TGI (CAKI-1 renal): 23.3 µM
GI50 (CCRF-CEM leukemia): 1.39 µM
TGI (CCRF-CEM leukemia): 4.9 µM
GI50 (SN12C renal): 2.24 µM
TGI (SN12C renal): 8.9 µM
GI50 (DU-145 prostate): 5.24 µM
TGI (DU-145 prostate): 17.7 µM
GI50 (RXF 393 renal): 1.24 µM
TGI (RXF 393 renal): 2.53 µM
GI50 (KM12 colon): 12.6 µM
TGI (KM12 colon): 25.1 µM
GI50 (HOP-92 NSCLC): 1.14 µM
TGI (HOP-92 NSCLC): 7.29 µM
GI50 (BT-549 breast): 2.37 µM
TGI (BT-549 breast): 15.3 µM
GI50 (U251 CNS): 6.97 µM
TGI (U251 CNS): 19.7 µM
GI50 (OVCAR-8 ovarian): 10.4 µM
TGI (OVCAR-8 ovarian): 22.1 µM
GI50 (RPMI-8226 leukemia): 4.11 µM
TGI (RPMI-8226 leukemia): 18.4 µM
GI50 (LOX IMVI melanoma): 0.883 µM
TGI (LOX IMVI melanoma): 2.11 µM
GI50 (SK-OV-3 ovarian): 21.7 µM
TGI (SK-OV-3 ovarian): 64 µM
GI50 (NCI/ADR-RES ovarian): 10.3 µM
TGI (NCI/ADR-RES ovarian): 25.9 µM
GI50 (COLO 205 colon): 4.19 µM
TGI (COLO 205 colon): 15.1 µM
GI50 (EKVX NSCLC): 12.1 µM
TGI (EKVX NSCLC): 26.1 µM
GI50 (NCI-H23 lung): 9.39 µM
TGI (NCI-H23 lung): 21.3 µM
GI50 (SF-268 CNS): 14.4 µM
TGI (SF-268 CNS): 34.7 µM
GI50 (SF-539 CNS): 2.45 µM
TGI (SF-539 CNS): 6.91 µM
GI50 (SR leukemia): 1.04 µM
TGI (SR leukemia): 3.94 µM
GI50 (OVCAR-3 ovarian): 3.43 µM
TGI (OVCAR-3 ovarian): 14 µM
GI50 (SF-295 CNS): 16 µM
TGI (SF-295 CNS): 33.1 µM
GI50 (IGROV1 ovarian): 10.7 µM
TGI (IGROV1 ovarian): 22.6 µM
GI50 (M14 melanoma): 2.41 µM
TGI (M14 melanoma): 10.2 µM
GI50 (T-47D breast): 10.5 µM
TGI (T-47D breast): 25.5 µM
GI50 (SW-620 colon): 0.728 µM
TGI (SW-620 colon): 2.24 µM
GI50 (HOP-62 NSCLC): 15.5 µM
TGI (HOP-62 NSCLC): 32 µM
GI50 (MCF7 breast): 2.8 µM
TGI (MCF7 breast): 14.9 µM
GI50 (HCT-15 colon): 1.47 µM
TGI (HCT-15 colon): 3.25 µM
GI50 (OVCAR-5 ovarian): 3.97 µM
TGI (OVCAR-5 ovarian): 16 µM
GI50 (SNB-75 CNS): 16 µM
TGI (SNB-75 CNS): 34.1 µM
GI50 (MDA-MB-435): 11.7 µM
TGI (MDA-MB-435): 23.9 µM
GI50 (HL-60(TB) leukemia): 3.43 µM
TGI (HL-60(TB) leukemia): 16.8 µM
GI50 (HT29 colon): 2.56 µM
TGI (HT29 colon): 9.29 µM
GI50 (A498 renal): 22.8 µM
TGI (A498 renal): 91.4 µM
GI50 (UO-31 renal): 2.93 µM
TGI (UO-31 renal): 16.4 µM
GI50 (SK-MEL-28 melanoma): 8.85 µM
TGI (SK-MEL-28 melanoma): 21.1 µM
GI50 (A549 NSCLC): 12 µM
TGI (A549 NSCLC): 24.4 µM
GI50 (TK-10 renal): 13.5 µM
TGI (TK-10 renal): 26.3 µM
GI50 (NCI-H226 lung): 1.68 µM
TGI (NCI-H226 lung): 4.5 µM
GI50 (786-0 renal): 1.54 µM
TGI (786-0 renal): 3.81 µM
